# Publication PMC12016938, “A small molecule PKCε inhibitor reduces hyperalgesia induced by paclitaxel or opioid withdrawal” (JCI Insight, 2025)
# “And” between values parts separate entries of the source, which are not always exact repeats. Identical values can stand only once. Like-named read-outs stand apart in the source and are kept apart here.
# Key:
# [1] = system: morphine self-administration;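 note: rats trained to self-administer intravenous morphine at 500 µg/kg per infusion, first under FR1 then FR3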
# [2] = in vitro; details: human, microsomes; for half-life at 8.5 μM: both
# Protocol: Microsomal clearance. To determine if CP612 was a likely substrate for first-pass hepatic metabolism, we measured the stability of CP612 in the presence of human liver microsomes (BioIVT) pooled from over 100 male and female individuals. […] Test compounds were diluted to 10 μM in 0.1M PBS, and then 51 μL were dispensed in quadruplicate into wells of a 96-well plate, which was shaken at 600 rpm at 37°C. Reactions were initiated by adding 1.5 μL of microsomes (20 mg/mL) to the wells and 3 minutes later adding 7.5 μL of 8 mM NADPH (1 mM final concentration). Samples incubated without NADPH were used as negative controls.
# [3] = molecular target: T1, PKCη (Homo sapiens, UniProt P24723); assay: scanMax kinome panel, PKCη; format: binding; details: 200 nM CP612; read-out: scanMax % of control, PKCη
# T1 construct: purchased Eurofins-DiscoverX
# T1 sequence (P24723 whole entry): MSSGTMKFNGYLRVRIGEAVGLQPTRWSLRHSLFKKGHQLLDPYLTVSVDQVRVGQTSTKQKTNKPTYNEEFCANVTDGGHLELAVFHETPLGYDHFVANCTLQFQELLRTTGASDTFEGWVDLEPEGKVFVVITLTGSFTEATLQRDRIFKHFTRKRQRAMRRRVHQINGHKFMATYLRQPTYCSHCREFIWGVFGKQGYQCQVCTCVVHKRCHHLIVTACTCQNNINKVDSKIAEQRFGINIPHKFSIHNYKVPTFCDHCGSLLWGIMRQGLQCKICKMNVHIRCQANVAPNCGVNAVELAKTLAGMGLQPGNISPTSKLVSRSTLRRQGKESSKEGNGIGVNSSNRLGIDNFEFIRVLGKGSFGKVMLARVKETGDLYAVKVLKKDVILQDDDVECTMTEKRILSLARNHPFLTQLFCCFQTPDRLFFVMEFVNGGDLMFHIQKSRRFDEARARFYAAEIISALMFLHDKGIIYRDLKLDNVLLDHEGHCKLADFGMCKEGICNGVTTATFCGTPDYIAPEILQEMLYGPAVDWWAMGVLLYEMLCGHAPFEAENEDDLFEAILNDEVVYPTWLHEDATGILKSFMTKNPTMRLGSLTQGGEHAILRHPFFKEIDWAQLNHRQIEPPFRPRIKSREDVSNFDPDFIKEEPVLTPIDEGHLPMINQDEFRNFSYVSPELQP
# Protocol: CP612 was screened for kinome specificity at 200 nM against 468 kinases using the scanMax assay panel from Eurofins-DiscoverX. CP612 inhibited 10 other WT kinases besides PKCε, all to < 10% of control: CLK1 (CDC Like Kinase 1), CLK4, PKN1 (Protein kinase N1), PKN2, PKCδ, PKCη, PKCθ, PRKG2 (Protein Kinase CGMP-Dependent 2), ROCK1, and ROCK2.
# [4] = molecular target: T2, PKCβII (Homo sapiens, UniProt P05771); assay: Lance-FRET kinase assay, PKCβII; format: biochemical; details: Figure 1B
# T2 construct: purchased SignalChem Biotech
# T2 sequence (P05771 1-673 isoform P05771-2): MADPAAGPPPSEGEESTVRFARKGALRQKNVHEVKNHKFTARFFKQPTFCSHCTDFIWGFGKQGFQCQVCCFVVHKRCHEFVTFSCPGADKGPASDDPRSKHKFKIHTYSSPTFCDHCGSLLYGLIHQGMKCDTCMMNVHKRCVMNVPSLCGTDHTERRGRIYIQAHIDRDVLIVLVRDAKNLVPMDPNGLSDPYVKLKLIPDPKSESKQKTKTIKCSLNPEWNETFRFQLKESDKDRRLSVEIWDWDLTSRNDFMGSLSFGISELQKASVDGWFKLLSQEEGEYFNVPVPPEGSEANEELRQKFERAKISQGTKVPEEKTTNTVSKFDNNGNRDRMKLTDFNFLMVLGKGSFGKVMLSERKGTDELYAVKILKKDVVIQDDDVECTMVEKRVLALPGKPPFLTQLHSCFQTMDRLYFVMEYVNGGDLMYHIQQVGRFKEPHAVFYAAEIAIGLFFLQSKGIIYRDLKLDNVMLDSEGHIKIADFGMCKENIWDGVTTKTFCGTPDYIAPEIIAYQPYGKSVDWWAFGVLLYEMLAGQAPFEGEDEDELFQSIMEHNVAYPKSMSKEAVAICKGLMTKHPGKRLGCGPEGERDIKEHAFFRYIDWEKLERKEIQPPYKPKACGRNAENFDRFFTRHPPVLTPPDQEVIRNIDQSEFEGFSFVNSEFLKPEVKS
# Protocol: Kinase assays. CP612 was assayed against His-AVI–tagged human PKCε (1 nM) produced in Sf9 cells, and ROCK1 (Carna Biosciences; 5 nM) using the Lance-FRET kinase assay system (PerkinElmer Revvity). Other human recombinant PKCs (SignalChem Biotech) were assayed in triplicate at the following concentrations: PKCβII 1.6 nM, PKCγ 500 pM, PKCδ 5 nM, PKCθ 500 pM, and PKCζ 500 pM. PKCs were incubated in a 15 μL reaction volume with kinase buffer (20 mM Tris-HCL [pH 7.4], 10 mM MgCl2, 0.25 mM EGTA, 0.1 mg/mL BSA, and 0.15% Triton X-100), 50 nM ULight-labeled CREBtide […] (PerkinElmer, TRF0107, Revvity), and test compound. […] After incubation at 27°C for another 60 minutes, phosphorylation was detected using a FlexStation 3 Microplate Reader (Molecular Devices) in LANCE TR-FRET mode (excitation = 340 nm, emission = 665 nm) and expressed as relative fluorescence units (RFU). The percentage of inhibition was calculated as: (signal without test compound − signal with test compound)/(signal without test compound − signal without ATP) × 100. […]
# Kinase assays used 11-point concentration-response curves and results were analyzed by nonlinear regression using Prism 9 (GraphPad Software) to determine IC50 values. […] Scores for pain threshold, conditioned place preference, and self-administration were analyzed by ANOVA using the following factors. […]
structure (smiles),measurement,setting,value
N[C@H](CNC(=O)C1(c2ccc(Cl)cc2)CCCC1)c1ccc(C(=O)Nc2ccncc2)cc1 [CP612],D10 BP (PR1),"[1]; BP, Day 10, progressive ratio PR1, CP612 6 hours prior, group mean, n=7",25.57
same,D12 BP (PR2_WD),"[1]; BP, Day 12, progressive ratio PR2 withdrawal, CP612 6 hours prior, group mean, n=6",21.67
same,D13 BP (PR3_Nal),"[1]; BP, Day 13, progressive ratio PR3_Nal, CP612 6 hours prior, group mean, n=7",17.57
same,D12 BP (PR2_WD),"[1]; BP, PR2_WD, day 12, individual rats",40 and 15 and 20
same,Effect on morphine intake or responding (infusions and breaking point),"[1]; CP612 30 mg/kg i.p. 6 hours prior, progressive ratio tests 1-3",did not modify morphine intake or responding
same,D1 AH (FR1),"[1]; active hole responses, Day 1, fixed ratio 1, mean of CP612 group, n=7",16.14
same,D2 AH (FR1),"[1]; active hole responses, Day 2, fixed ratio 1, mean of CP612 group, n=7",13.86
same,D3 AH (FR1),"[1]; active hole responses, Day 3, fixed ratio 1, mean of CP612 group, n=7",16.29
same,D4 AH (FR1),"[1]; active hole responses, Day 4, fixed ratio 1, mean of CP612 group, n=7",14.57
same,D4 AH (FR3),"[1]; active hole responses, Day 4, fixed ratio 3, mean of CP612 group, n=7",14.57
same,D5 AH (FR3),"[1]; active hole responses, Day 5, fixed ratio 3, mean of CP612 group, n=7",25.86
same,D6 AH (FR3),"[1]; active hole responses, Day 6, fixed ratio 3, mean of CP612 group, n=7",25.71
same,D7 AH (FR3),"[1]; active hole responses, Day 7, fixed ratio 3, mean of CP612 group, n=7",27.86
same,D8 AH (FR3),"[1]; active hole responses, Day 8, fixed ratio 3, mean of CP612 group, n=7",35.00
same,D9 AH (FR3),"[1]; active hole responses, Day 9, fixed ratio 3, mean of CP612 group, n=7",37.86
same,D10 AH (PR1),"[1]; active hole responses, Day 10, PR1, CP612 6 hours prior, group mean, n=7",119.00
same,D12 AH (PR2_WD),"[1]; active hole responses, Day 12, PR2 withdrawal, CP612 6 hours prior, group mean, n=6",99.33
same,D13 AH (PR3_Nal),"[1]; active hole responses, Day 13, PR3_Nal, CP612 6 hours prior, group mean, n=7",78.29
same,AH (avg all),"[1]; active hole responses, average of all days D1-D9, mean of CP612 group, n=7",23.68
same,AH (avg last 3 days),"[1]; active hole responses, average of last 3 days, mean of CP612 group, n=7",33.57
same,D1 IH (FR1),"[1]; inactive hole responses, Day 1, fixed ratio 1, mean of CP612 group, n=7",7.43
same,D2 IH (FR1),"[1]; inactive hole responses, Day 2, fixed ratio 1, mean of CP612 group, n=7",12.14
same,D3 IH (FR1),"[1]; inactive hole responses, Day 3, fixed ratio 1, mean of CP612 group, n=7",12.43
same,D4 IH (FR1),"[1]; inactive hole responses, Day 4, fixed ratio 1, mean of CP612 group, n=7",8.71
same,D4 IH (FR3),"[1]; inactive hole responses, Day 4, fixed ratio 3, mean of CP612 group, n=7",8.71
same,D5 IH (FR3),"[1]; inactive hole responses, Day 5, fixed ratio 3, mean of CP612 group, n=7",13.86
same,D6 IH (FR3),"[1]; inactive hole responses, Day 6, fixed ratio 3, mean of CP612 group, n=7",7.43
same,D7 IH (FR3),"[1]; inactive hole responses, Day 7, fixed ratio 3, mean of CP612 group, n=7",4.57
same,D8 IH (FR3),"[1]; inactive hole responses, Day 8, fixed ratio 3, mean of CP612 group, n=7",6.43
same,D9 IH (FR3),"[1]; inactive hole responses, Day 9, fixed ratio 3, mean of CP612 group, n=7",5.57
same,D10 IH (PR1),"[1]; inactive hole responses, Day 10, PR1, CP612 6 hours prior, group mean, n=7",13.00
same,D12 IH (PR2_WD),"[1]; inactive hole responses, Day 12, PR2 withdrawal, CP612 6 hours prior, group mean, n=6",10.67
same,D13 IH (PR3_Nal),"[1]; inactive hole responses, Day 13, PR3_Nal, CP612 6 hours prior, group mean, n=7",8.86
same,D9 IH (avg all),"[1]; inactive hole responses, average of all days D1-D9, mean of CP612 group, n=7",8.73
same,D9 IH (avg last 3 days),"[1]; inactive hole responses, average of last 3 days, mean of CP612 group, n=7",5.52
same,D10 AH (PR1) Log,"[1]; log of active hole responses, Day 10, PR1, CP612 6 hours prior, group mean, n=7",2.04
same,D12 AH (PR2_WD) Log,"[1]; log of active hole responses, Day 12, PR2 withdrawal, CP612 6 hours prior, group mean, n=6",1.94
same,D13 AH (PR3_Nal) Log,"[1]; log of active hole responses, Day 13, PR3_Nal, CP612 6 hours prior, group mean, n=7",1.85
same,D10 IH (PR1) Log,"[1]; log of inactive hole responses, Day 10, PR1, CP612 6 hours prior, group mean, n=7",1.03
same,D12 IH (PR2_WD) Log,"[1]; log of inactive hole responses, Day 12, PR2 withdrawal, CP612 6 hours prior, group mean, n=6",0.89
same,D13 IH (PR3_Nal) Log,"[1]; log of inactive hole responses, Day 13, PR3_Nal, CP612 6 hours prior, group mean, n=7",0.88
same,D10 Inf (PR1) Log,"[1]; log of infusions, Day 10, PR1, CP612 6 hours prior, group mean, n=7",0.94
same,D12 Inf (PR2_WD) Log,"[1]; log of infusions, Day 12, PR2 withdrawal, CP612 6 hours prior, group mean, n=6",0.91
same,D13 Inf (PR3_Nal) Log,"[1]; log of infusions, Day 13, PR3_Nal, CP612 6 hours prior, group mean, n=7",0.85
same,D12 Inf (PR2_WD) Log,"[1]; log of infusions, PR2_WD, day 12, individual rats",1.04 and 0.85 and 0.90
same,D10 Latency (PR1) Log,"[1]; log of latency, Day 10, PR1, CP612 6 hours prior, group mean, n=7",-0.40
same,D12 Latency (PR2_WD) Log,"[1]; log of latency, Day 12, PR2 withdrawal, CP612 6 hours prior, group mean, n=6",-0.00262
same,D13 Latency (PR3_Nal) Log,"[1]; log of latency, Day 13, PR3_Nal, CP612 6 hours prior, group mean, n=7",-0.48
same,D2 Inf (FR1),"[1]; morphine infusions, Day 2, fixed ratio 1, mean of CP612 group, n=7",10.71
same,D3 Inf (FR1),"[1]; morphine infusions, Day 3, fixed ratio 1, mean of CP612 group, n=7",10.86
same,D4 Inf (FR1),"[1]; morphine infusions, Day 4, fixed ratio 1, mean of CP612 group, n=7",11.00
same,D4 Inf (FR3),"[1]; morphine infusions, Day 4, fixed ratio 3, mean of CP612 group, n=7",11.00
same,D5 Inf (FR3),"[1]; morphine infusions, Day 5, fixed ratio 3, mean of CP612 group, n=7",6.43
same,D6 Inf (FR3),"[1]; morphine infusions, Day 6, fixed ratio 3, mean of CP612 group, n=7",7.14
same,D7 Inf (FR3),"[1]; morphine infusions, Day 7, fixed ratio 3, mean of CP612 group, n=7",7.71
same,D8 Inf (FR3),"[1]; morphine infusions, Day 8, fixed ratio 3, mean of CP612 group, n=7",9.57
same,D9 Inf (FR3),"[1]; morphine infusions, Day 9, fixed ratio 3, mean of CP612 group, n=7",10.29
same,D10 Inf (PR1),"[1]; morphine infusions, Day 10, progressive ratio test PR1, CP612 6 hours prior, group mean, n=7",8.86
same,D12 Inf (PR2_WD),"[1]; morphine infusions, Day 12, progressive ratio test PR2 in withdrawal, CP612 6 hours prior, group mean, n=6",8.17
same,D13 Inf (PR3_Nal),"[1]; morphine infusions, Day 13, progressive ratio test PR3_Nal, CP612 6 hours prior, group mean, n=7",7.29
same,Inf (avg all),"[1]; morphine infusions, average of all self-administration days D1-D9, mean of CP612 group, n=7",9.33
same,Inf (avg last 3 days),"[1]; morphine infusions, average of last 3 days, mean of CP612 group, n=7",9.19
same,D12 Inf (PR2_WD),"[1]; morphine infusions, progressive ratio session PR2_WD, day 12, individual rats",11 and 7 and 8
same,D1 Inf (FR1),"[1]; morphine infusions, self-administration Day 1, fixed ratio 1, mean of CP612 group, n=7",10.29
same,D1 Latency (FR1),"[1]; time to first infusion, Day 1, fixed ratio 1, mean of CP612 group, n=7",3.00 min
same,D2 Latency (FR1),"[1]; time to first infusion, Day 2, fixed ratio 1, mean of CP612 group, n=7",1.98 min
same,D3 Latency (FR1),"[1]; time to first infusion, Day 3, fixed ratio 1, mean of CP612 group, n=7",0.73 min
same,D4 Latency (FR3),"[1]; time to first infusion, Day 4, fixed ratio 3, mean of CP612 group, n=7",0.44 min
same,D5 Latency (FR3),"[1]; time to first infusion, Day 5, fixed ratio 3, mean of CP612 group, n=7",0.20 min
same,D6 Latency (FR3),"[1]; time to first infusion, Day 6, fixed ratio 3, mean of CP612 group, n=7",0.53 min
same,D7 Latency (FR3),"[1]; time to first infusion, Day 7, fixed ratio 3, mean of CP612 group, n=7",0.53 min
same,D8 Latency (FR3),"[1]; time to first infusion, Day 8, fixed ratio 3, mean of CP612 group, n=7",0.46 min
same,D9 Latency (FR3),"[1]; time to first infusion, Day 9, fixed ratio 3, mean of CP612 group, n=7",0.44 min
same,D10 Latency (PR1),"[1]; time to first infusion, Day 10, PR1, CP612 6 hours prior, group mean, n=7",0.60 min
same,D12 Latency (PR2_WD),"[1]; time to first infusion, Day 12, PR2 withdrawal, CP612 6 hours prior, group mean, n=6",1.44 min
same,D13 Latency (PR3_Nal),"[1]; time to first infusion, Day 13, PR3_Nal, CP612 6 hours prior, group mean, n=7",0.75 min
same,D9 Latency (avg all),"[1]; time to first infusion, average of all days D1-D9, mean of CP612 group, n=7",0.92 min
same,D9 Latency (avg last 3 days),"[1]; time to first infusion, average of last 3 days, mean of CP612 group, n=7",0.48 min
same,half-life at 8.5 μM,[2]; Microsomal clearance t½ (min),10.5 ± 1.31 h
same,half-life at 8.5 μM,[2]; t1/2 (half life),10.8 h
same,half-life at 8.5 μM,"[2]; t1/2 (half life), Mean",10.5 h
same,"CLint (clearance), Mean",[2],2.23
same,Microsomal clearance (in words),[2],low
same,Microsomal clearance Cl,[2],2.23 ± 0.29 µL/min
same,remaining binding at 0.2 µM,[3],< 10%
same,Inhibition of conventional PKCβII,[4],weakly inhibited
